Active and inactive are the calls of the source. The calls are words filed in the database; no cut-off is given here.
How the values were obtained:
Ralstonia solanacearum [1] = format: functional
Ralstonia solanacearum [2] = system: Ralstonia solanacearum
Ralstonia solanacearum [3] = system: Ralstonia solanacearum; remark: listed apart in the source
Ralstonia solanacearum [4] = format: functional; remark: listed apart in the source
Ralstonia solanacearum [5] = format: functional; remark: listed apart in the source
Ralstonia solanacearum [6] = format: functional; remark: listed apart in the source

Row | Structure (SMILES) | diameter of the inhibition zone (DIZ) (Ralstonia solanacearum [1]) [mm] | DIZ (Ralstonia solanacearum [2]) | DIZ (Ralstonia solanacearum [3]) | further results
1 | COC(=O)c1ccc(OC)cc1O | 11 | inactive | – | –
2 | CCCCCCCCCCCCOC(=O)c1cc(O)c(O)c(O)c1 | – | inactive | inactive | –
3 | CCCCCCCCCOC(=O)c1ccc(O)cc1 | – | inactive | inactive | –
4 | COC(=O)c1cc(OC)cc(OC)c1 | – | inactive | inactive | –
5 | COC(=O)c1ccccc1O | – | inactive | inactive | –
6 | COc1cc(/C=C/C(=O)O)cc(OC)c1O | – | inactive | inactive | –
7 | COc1cc(/C=C/C(=O)O)ccc1O | – | inactive | inactive | –
8 | COc1ccc(/C=C/C(=O)O)cc1O | – | inactive | inactive | –
9 | C[C@@H]1O[C@@H](OC[C@H]2O[C@@H](Oc3c(-c4ccc(O)c(O)c4)oc4cc(O)cc(O)c4c3=O)[C@H](O)[C@@H](O)[C@@H]2O)[C@H](O)[C@H](O)[C@H]1O | – | inactive | inactive | –
10 | O=C(/C=C/c1ccc(O)c(O)c1)O[C@@H]1C[C@](O)(C(=O)O)C[C@@H](O)[C@H]1O | – | inactive | inactive | –
11 | O=C(O)/C=C/c1ccc(O)c(O)c1 | – | inactive | inactive | –
12 | O=c1c(O)c(-c2ccc(O)c(O)c2)oc2cc(O)cc(O)c12 | – | inactive | inactive | –
13 | O=c1oc2c(O)c(O)cc3c(=O)oc4c(O)c(O)cc1c4c23 | – | inactive | inactive | –
14 | O=C(O)c1cccc(O)c1 [3-HYDROXYBENZOIC ACID] | 14 | inactive | – | –
15 | O=C(O)/C=C/c1ccccc1 [CINNAMIC ACID] | 13 | inactive | – | –
16 | O=C(O)/C=C/c1ccc(O)cc1 [COUMARIC ACID] | 11 | inactive | – | –
17 | CCOC(=O)c1cc(O)c(O)c(O)c1 [ETHYLGALLATE] | 42 | – | – | diameter of the inhibition zone (DIZ) (Ralstonia solanacearum [4]): 18 mm

Row | Structure (SMILES) | diameter of the inhibition zone (DIZ) (Ralstonia solanacearum [1]) [mm] | DIZ (Ralstonia solanacearum [2]) | DIZ (Ralstonia solanacearum [3]) | further results
18 | CCOC(=O)c1ccc(O)cc1 [ETHYLPARABEN] | 29 | inactive | – | –
19 | COC(=O)c1cc(O)c(O)c(O)c1 [GALLIC ACID METHYL ESTER] | 54 | – | – | diameter of the inhibition zone (DIZ) (Ralstonia solanacearum [5]): 11 mm; diameter of the inhibition zone (DIZ) (Ralstonia solanacearum [4]): 22 mm; diameter of the inhibition zone (DIZ) (Ralstonia solanacearum [6]): 18 mm
20 | O=C(O)c1cc(O)c(O)c(O)c1 [GALLIC ACID] | 12 | inactive | – | –
21 | COC(=O)c1cccc(O)c1O [METHYL 2,3-DIHYDROXYBENZOATE] | 58 | – | – | diameter of the inhibition zone (DIZ) (Ralstonia solanacearum [4]): 13 mm
22 | COC(=O)c1ccc(O)cc1O [METHYL 2,4-DIHYDROXYBENZOATE] | 32 | inactive | – | –
23 | COC(=O)c1cc(O)ccc1O [METHYL 2,5-DIHYDROXYBENZOATE] | 43 | inactive | – | –
24 | COC(=O)c1cc(O)cc(O)c1 [METHYL 3,5-DIHYDROXYBENZOATE] | 18 | inactive | – | –
25 | COC(=O)c1cccc(O)c1 [METHYL 3-HYDROXYBENZOATE] | 23 | inactive | – | –
26 | COC(=O)c1ccc(O)c(O)c1 [METHYL PROTOCATECHUATE] | 37 | – | – | diameter of the inhibition zone (DIZ) (Ralstonia solanacearum [4]): 11 mm
27 | COC(=O)c1ccc(O)c(OC)c1 [METHYL VANILLATE] | 15 | inactive | – | –
28 | COC(=O)c1ccc(O)cc1 [METHYLPARABEN] | 36 | inactive | – | –
29 | O=C(O)/C=C/c1ccccc1O [O-COUMARIC ACID] | 16 | inactive | – | –
30 | CCCCCCCCOC(=O)c1cc(O)c(O)c(O)c1 [OCTYL_GALLATE] | 12 | – | – | diameter of the inhibition zone (DIZ) (Ralstonia solanacearum [4]): 11 mm
31 | O=C(O)c1ccc(O)cc1 [PARABEN] | 13 | inactive | – | –
32 | CCCOC(=O)c1cc(O)c(O)c(O)c1 [PROPYL GALLATE] | 31 | – | – | diameter of the inhibition zone (DIZ) (Ralstonia solanacearum [4]): 11 mm
33 | CCCOC(=O)c1ccc(O)cc1 [PROPYLPARABEN] | 17 | inactive | – | –
34 | O=C(O)c1ccccc1O [SALICYLIC ACID] | 16 | – | – | –

— ChEMBL document CHEMBL3046865, “Antibacterial activity of alkyl gallates and related compounds against Ralstonia solanacearum” (2011)
